Source: PMC8455565 (Scientific Reports, 2021)

How the values were obtained:
NK cells (LPS) = experiment: High-dimensional phosphorylation analysis, NK cells (LPS); assay type: cell-based, human; details: 30 µM, 60'
ITK = biological target: T1, ITK (Homo sapiens, UniProt Q08881); experiment: Kinase selectivity biochemical assay, ITK
T1 sequence (Q08881 1-620): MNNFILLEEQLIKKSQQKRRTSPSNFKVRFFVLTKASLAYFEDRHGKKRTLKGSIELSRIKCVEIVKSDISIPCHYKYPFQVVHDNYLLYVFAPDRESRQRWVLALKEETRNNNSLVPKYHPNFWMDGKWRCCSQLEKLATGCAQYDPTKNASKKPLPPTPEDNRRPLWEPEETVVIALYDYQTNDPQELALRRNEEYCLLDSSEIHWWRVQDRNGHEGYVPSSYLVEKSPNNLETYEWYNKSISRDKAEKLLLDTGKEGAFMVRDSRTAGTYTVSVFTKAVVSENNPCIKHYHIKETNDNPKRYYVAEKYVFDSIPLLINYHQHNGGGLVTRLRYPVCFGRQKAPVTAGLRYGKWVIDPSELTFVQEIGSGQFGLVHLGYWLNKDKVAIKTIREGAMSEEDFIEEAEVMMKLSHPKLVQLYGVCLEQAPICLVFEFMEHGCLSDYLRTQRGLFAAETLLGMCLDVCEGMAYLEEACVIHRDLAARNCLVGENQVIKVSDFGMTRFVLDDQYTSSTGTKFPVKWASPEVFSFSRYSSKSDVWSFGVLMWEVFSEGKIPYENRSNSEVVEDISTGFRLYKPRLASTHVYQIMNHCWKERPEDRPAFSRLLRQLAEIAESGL

CD4+ Memory (CD3+CD28) = experiment: High-dimensional phosphorylation analysis, CD4+ Memory (CD3+CD28); assay type: cell-based, human; details: 30 µM, 5'
Method: (§1) The analysis measured 94 intracellular signaling nodes (81 phosphorylation sites, 10 total protein levels and 3 methylation/acetylation sites) in stimulated immune cells, including B cells (IgM plus CD40L), CD4 + and CD8 + T cells (IL-2; CD3 plus CD28), monocytes (M-CSF), NK cells (IL-2), and granulocytes (LPS).

CIA model rats [1] = experiment: Histopathological assessment of arthritis in CIA rats; assay type: in vivo, rat; details: for Histological assessment (Means of the 4 indexes): mean ± SEM
Method: Briefly, the hind legs of each rat were fixed with 10% formalin, decalcified in 5% formic acid, embedded in paraffin, and cut for pathological staining. Arthritis, bone erosion and synovitis were determined by hematoxylin and eosin (H&E) staining, and cartilage damage was evaluated by safranin O staining. All parameters were scored on a scale of 0 to 4 based on severity according to the following criteria: 0 = no erosion, 1 = mild (focal subchondral erosion), 2 = moderate (multiple subchondral erosions), 3 = high (multiple subchondral erosions and focal erosion of the talus), and 4 = maximum (multiple erosions of the tarsal and metatarsal bones). This test was conducted by the Department of Pathology of Asan Medical Center (University of Ulsan College of Medicine, Republic of Korea).

CIA model rats [2] = experiment: Collagen-induced arthritis (CIA) model, clinical score and body weight; assay type: in vivo, rat; details: for Arthritis clinical score: day 8, mean ± SEM
Method: All animals were obtained from Charles River Japan (150 ± 10 g, 6 weeks old). The experimental protocols were approved by the animal care and use committee of the Hanmi Research Center and performed in accordance with approved guidelines. Briefly, 7-week-old male Lewis rats were immunized with a collagen emulsion of equal volumes of IFA ([…], Sigma-Aldrich) and bovine type II collagen (total volume, 0.6 mL) via intradermal injection into the base of the tail. Seven days later, the rats were given a booster immunization of 0.3 ml of collagen emulsion in the same manner. The incidence of arthritis was 79% on day 6 after booster immunization, and the rats were randomized into 4 groups when the average clinical score of each animal was 2.8 (on a scale of 16) (n = 20 in each drug-administered group, n = 8 in the CIA control group). […] The arthritis score was determined by grading each paw from 0 to 4 based on erythema, swelling, and flexion of the joint. Body weight was also measured three times per week.

A431 = experiment: Cell growth inhibition in EGFR overexpressed A431; assay type: cell-based; details: Homo sapiens, A-431; cellular level; read-out: IC50, cell growth inhibition in EGFR overexppressed A431
Monocytes (M-CSF) = experiment: High-dimensional phosphorylation analysis, Monocytes (M-CSF); assay type: cell-based, human
Method: as §1

[3] = Phase I pharmacokinetics in healthy volunteers; assay type: in vivo; details: male, human, plasma, oral; after multiple doses, all dose levels (BID)
Method: PK/PD data from 24 subjects who had received the drug BID among the 90 total subjects who participated in the MAD study were analyzed. Blood was collected on day 1 before drug administration and 1 h, 2 h, 4 h, and 12 h after drug administration. Blood samples were taken 3 days and 2 h after drug administration. Additional blood samples were taken on day 6 (5, 20, and 60 mg/kg), day 15 (40 mg/kg), day 17, and day 21 for PK/PD analysis.
After drug administration, whole blood was collected from CIA model rats and human subjects at the indicated times. Plasma was obtained by centrifugation at 12,000 rpm for 2 min and stored at − 20 °C until analysis.

[4] = 3 mg/kg, ankle joints, vs CIA control

C=CC(=O)Nc1cccc(Oc2nc(Nc3ccc(N4CCN(C)CC4)cc3)nc3ccoc23)c1 [Poseltinib]
AKT1 phosphorylation, Log2Ratio Stim/Control (NK cells (LPS)): 0.44
Akt phosphorylation, Log2Ratio Stim/Control (NK cells (LPS)): 0.54
BTK phosphorylation, Log2Ratio Stim/Control (NK cells (LPS)): -0.04
GSK3B phosphorylation, Log2Ratio Stim/Control (NK cells (LPS)): 0.91
MAP2K1 phosphorylation, Log2Ratio Stim/Control (NK cells (LPS)): 0.51
MNK phosphorylation, Log2Ratio Stim/Control (NK cells (LPS)): 0.07
P38 phosphorylation, Log2Ratio Stim/Control (NK cells (LPS)): 0.36
RPS6 phosphorylation, Log2Ratio Stim/Control (NK cells (LPS)): 0.30
SMAD2 phosphorylation, Log2Ratio Stim/Control (NK cells (LPS); first SMAD2 line): 0.67
SMAD2 phosphorylation, Log2Ratio Stim/Control (NK cells (LPS); second SMAD2 line): 0.07
selectivity toward BTK over ITK (ITK): 53 ×
BTK phosphorylation, Log2Ratio Stim/Control (CD4+ Memory (CD3+CD28)): 1.21
CD247 phosphorylation, Log2Ratio Stim/Control (CD4+ Memory (CD3+CD28)): 2.86
CrkL phosphorylation, Log2Ratio Stim/Control (CD4+ Memory (CD3+CD28)): 1.63
LCK phosphorylation, Log2Ratio Stim/Control (CD4+ Memory (CD3+CD28)): 1.51
PLCγ2 phosphorylation, Log2Ratio Stim/Control (CD4+ Memory (CD3+CD28)): 2.43
PTK2B phosphorylation, Log2Ratio Stim/Control (CD4+ Memory (CD3+CD28)): 0.93
SLP76 phosphorylation, Log2Ratio Stim/Control (CD4+ Memory (CD3+CD28)): 1.63
Src phosphorylation, Log2Ratio Stim/Control (CD4+ Memory (CD3+CD28)): 0.82
ZAP70 phosphorylation, Log2Ratio Stim/Control (CD4+ Memory (CD3+CD28)): 1.22
Histological assessment (Means of the 4 indexes) (CIA model rats [1]; 0.3 mg/kg oral once daily): 6.9 ± 0.2
Histological assessment (Means of the 4 indexes) (CIA model rats [1]; 1 mg/kg oral once daily): 6.3 ± 0.2
Histological assessment (Means of the 4 indexes) (CIA model rats [1]; 3 mg/kg oral once daily): 4.1 ± 0.2
arthritis index reduction (CIA model rats [1]; [4]): 44%
bone erosion index reduction (CIA model rats [1]; [4]): 38%
cartilage degradation index reduction (CIA model rats [1]; [4]): 37%
synovitis index reduction (CIA model rats [1]; [4]): 37%
Arthritis clinical score (CIA model rats [2]; 0.3 mg/kg oral once daily): 8.5 ± 0.5
Arthritis clinical score (CIA model rats [2]; 1 mg/kg oral once daily): 6.7 ± 0.6
disease-induced body weight loss (CIA model rats [2]; 3 mg/kg): prevented weight loss
Arthritis clinical score (CIA model rats [2]; 3 mg/kg oral once daily): 2.7 ± 0.4
IC50 (A431): > 500 nM
AKT1 phosphorylation, Log2Ratio Stim/Control (Monocytes (M-CSF); 30 µM, 5'): 0.41
Akt phosphorylation, Log2Ratio Stim/Control (Monocytes (M-CSF); 30 µM, 5'): 1.06
BTK phosphorylation, Log2Ratio Stim/Control (Monocytes (M-CSF); 30 µM, 5'): -0.12
GSK3B phosphorylation, Log2Ratio Stim/Control (Monocytes (M-CSF); 30 µM, 5'): 0.82
HSP27 phosphorylation, Log2Ratio Stim/Control (Monocytes (M-CSF); 30 µM, 5'): 1.80
MAPK3 phosphorylation, Log2Ratio Stim/Control (Monocytes (M-CSF); 30 µM, 5'): 1.88
NDRG1 phosphorylation, Log2Ratio Stim/Control (Monocytes (M-CSF); 30 µM, 5'): 0.97
RELB phosphorylation, Log2Ratio Stim/Control (Monocytes (M-CSF); 30 µM, 5'): 0.82
RPS6KA1 phosphorylation, Log2Ratio Stim/Control (Monocytes (M-CSF); 30 µM, 5'): 1.33
RPS6 phosphorylation, Log2Ratio Stim/Control (Monocytes (M-CSF); 30 µM, 5'): 0.89
AKT phosphorylation in monocytes stimulated with M-CSF (Monocytes (M-CSF); data not shown): did not inhibit
Tmax [3]: 1 to 2 h
